The values below are quoted from earlier work in patent publication US8883831B2, “Compositions and methods for minimizing or reversing agonist-induced desensitization” (PharmoRx Therapeutics, Inc., priority 2008, dated 2014).

The target of data set [1] is pentapeptide segment at the carboxy terminal of Filamin A (Homo sapiens, UniProt P21333). As to conditions: read-out: binding affinity.
Data set [2] concerns chronic pain model in intact rodents. Conditions: ultra-low dose, absence of exogenously administered opioid agonists.

Sequence of pentapeptide segment at the carboxy terminal of Filamin A (P21333 whole entry): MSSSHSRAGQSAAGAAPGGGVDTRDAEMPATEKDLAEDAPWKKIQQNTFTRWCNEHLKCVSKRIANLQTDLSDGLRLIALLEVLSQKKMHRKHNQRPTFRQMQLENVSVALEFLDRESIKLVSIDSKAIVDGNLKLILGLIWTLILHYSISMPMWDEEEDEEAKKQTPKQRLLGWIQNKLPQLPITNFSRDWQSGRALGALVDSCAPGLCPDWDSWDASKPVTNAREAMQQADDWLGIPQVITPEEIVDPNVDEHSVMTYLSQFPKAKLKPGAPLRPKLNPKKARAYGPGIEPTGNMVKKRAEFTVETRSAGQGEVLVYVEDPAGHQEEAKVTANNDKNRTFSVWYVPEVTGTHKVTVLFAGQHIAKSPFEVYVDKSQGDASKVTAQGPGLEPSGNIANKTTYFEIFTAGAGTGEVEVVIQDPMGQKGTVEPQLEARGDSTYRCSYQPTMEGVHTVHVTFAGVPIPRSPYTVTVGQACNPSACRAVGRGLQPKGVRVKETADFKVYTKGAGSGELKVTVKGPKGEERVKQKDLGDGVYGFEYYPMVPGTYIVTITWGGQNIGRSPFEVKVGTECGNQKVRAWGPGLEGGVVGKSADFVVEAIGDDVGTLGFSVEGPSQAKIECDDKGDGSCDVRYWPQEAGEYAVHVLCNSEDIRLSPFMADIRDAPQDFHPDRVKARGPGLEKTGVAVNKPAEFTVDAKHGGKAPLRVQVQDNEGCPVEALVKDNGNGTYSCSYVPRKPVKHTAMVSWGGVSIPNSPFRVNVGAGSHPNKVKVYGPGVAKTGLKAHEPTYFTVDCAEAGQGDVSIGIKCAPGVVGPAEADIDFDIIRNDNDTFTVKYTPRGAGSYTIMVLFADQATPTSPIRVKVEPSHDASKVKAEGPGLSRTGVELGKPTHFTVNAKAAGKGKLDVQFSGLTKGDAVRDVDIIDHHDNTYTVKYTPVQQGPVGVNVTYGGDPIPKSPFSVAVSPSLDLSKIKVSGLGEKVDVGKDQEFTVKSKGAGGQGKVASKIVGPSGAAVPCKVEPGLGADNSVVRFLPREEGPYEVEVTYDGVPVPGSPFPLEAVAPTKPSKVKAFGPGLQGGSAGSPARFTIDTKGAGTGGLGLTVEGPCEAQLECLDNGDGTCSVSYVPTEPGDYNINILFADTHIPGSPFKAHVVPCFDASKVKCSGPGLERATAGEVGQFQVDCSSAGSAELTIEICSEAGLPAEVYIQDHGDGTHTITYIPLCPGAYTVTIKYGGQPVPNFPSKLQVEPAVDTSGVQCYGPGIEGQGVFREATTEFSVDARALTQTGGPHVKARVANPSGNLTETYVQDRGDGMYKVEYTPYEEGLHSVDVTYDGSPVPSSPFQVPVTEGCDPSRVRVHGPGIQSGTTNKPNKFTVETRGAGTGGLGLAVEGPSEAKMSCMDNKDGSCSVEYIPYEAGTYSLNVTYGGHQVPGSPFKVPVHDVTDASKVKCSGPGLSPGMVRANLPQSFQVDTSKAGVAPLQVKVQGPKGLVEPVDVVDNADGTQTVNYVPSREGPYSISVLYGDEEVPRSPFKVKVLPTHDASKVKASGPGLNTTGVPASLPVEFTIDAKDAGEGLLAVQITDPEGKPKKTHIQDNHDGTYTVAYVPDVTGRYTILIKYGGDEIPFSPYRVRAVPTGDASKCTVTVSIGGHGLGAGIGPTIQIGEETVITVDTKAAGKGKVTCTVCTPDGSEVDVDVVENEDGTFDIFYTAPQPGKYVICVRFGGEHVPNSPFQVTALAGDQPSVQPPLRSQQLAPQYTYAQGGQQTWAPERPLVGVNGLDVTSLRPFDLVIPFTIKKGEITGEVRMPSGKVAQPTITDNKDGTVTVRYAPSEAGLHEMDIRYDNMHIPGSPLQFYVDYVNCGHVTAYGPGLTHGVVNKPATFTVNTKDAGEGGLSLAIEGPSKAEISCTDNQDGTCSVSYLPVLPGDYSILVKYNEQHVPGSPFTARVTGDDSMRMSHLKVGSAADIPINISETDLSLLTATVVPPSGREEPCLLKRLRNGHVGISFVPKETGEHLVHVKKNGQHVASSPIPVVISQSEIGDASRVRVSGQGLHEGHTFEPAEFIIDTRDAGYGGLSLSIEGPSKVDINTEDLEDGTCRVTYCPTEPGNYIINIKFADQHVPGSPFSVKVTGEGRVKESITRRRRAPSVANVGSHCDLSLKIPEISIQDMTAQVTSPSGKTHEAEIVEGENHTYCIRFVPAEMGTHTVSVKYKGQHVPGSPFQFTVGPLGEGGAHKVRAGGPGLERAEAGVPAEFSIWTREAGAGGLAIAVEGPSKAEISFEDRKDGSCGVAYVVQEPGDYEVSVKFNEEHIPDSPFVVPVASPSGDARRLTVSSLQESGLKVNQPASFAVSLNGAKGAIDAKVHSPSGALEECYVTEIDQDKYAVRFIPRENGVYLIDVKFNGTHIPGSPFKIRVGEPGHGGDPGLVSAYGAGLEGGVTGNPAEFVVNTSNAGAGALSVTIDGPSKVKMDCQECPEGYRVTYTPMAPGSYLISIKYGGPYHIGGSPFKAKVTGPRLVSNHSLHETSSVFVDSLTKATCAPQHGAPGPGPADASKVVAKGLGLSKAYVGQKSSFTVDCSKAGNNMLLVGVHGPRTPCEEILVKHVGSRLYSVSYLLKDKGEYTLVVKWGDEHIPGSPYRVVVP

For the compound `O=C1CC[C@@]2(O)[C@H]3Cc4ccc(O)c5c4[C@@]2(CCN3CC2CC2)[C@H]1O5` [naltrexone], the Kd in data set [1] was 4 pM. Besides, the “effect in chronic pain model” value in data set [2] is recorded as “no effect”.
